Measured values: the NIST ThermoML archive (doi:10.1016/j.jct.2019.02.011)

Test: xn = mol fraction of the nth substance listed
Conditions: Liquid, Vibrating tube method

COC(=O)OC [dimethyl carbonate] + CCCO
mass density [kg/m3]
Conditions	100 kPa	5000 kPa	10000 kPa	15000 kPa	20000 kPa	25000 kPa	30000 kPa	35000 kPa	40000 kPa
298.15 K, x1 = 0.0273	–	–	–	–	–	824.63	827.8	830.69	833.7
298.15 K, x1 = 0.0506	–	–	–	–	–	831.37	834.55	837.44	840.46
298.15 K, x1 = 0.0755	–	–	–	–	–	838.51	841.73	844.68	847.74
298.15 K, x1 = 0.1007	–	–	–	–	–	845.6	848.88	851.87	854.94
298.15 K, x1 = 0.1495	–	–	–	–	–	859.5	862.83	865.84	868.95
298.15 K, x1 = 0.2003	–	–	–	–	–	873.75	877.1	880.17	883.35
298.15 K, x1 = 0.2529	–	–	–	–	–	888.37	891.77	894.9	898.11
298.15 K, x1 = 0.2993	–	–	–	–	–	901.23	904.69	907.88	911.12
298.15 K, x1 = 0.3497	–	–	–	–	–	915.04	918.51	921.76	925.01
298.15 K, x1 = 0.401	–	–	–	–	–	928.97	932.5	935.75	939.03
298.15 K, x1 = 0.4509	–	–	–	–	–	942.42	946	949.32	952.62
298.15 K, x1 = 0.5002	–	–	–	–	–	955.58	959.23	962.55	965.93
298.15 K, x1 = 0.5498	–	–	–	–	965.01	968.71	972.41	975.8	979.21
298.15 K, x1 = 0.5996	–	–	–	–	978.09	981.85	985.57	988.96	992.41
298.15 K, x1 = 0.6499	–	–	–	–	991.19	995.01	998.78	1002.23	1005.7
298.15 K, x1 = 0.7006	–	–	–	–	1004.45	1008.28	1012.06	1015.57	1019.07
298.15 K, x1 = 0.7471	–	–	–	–	1016.43	1020.32	1024.11	1027.63	1031.19
298.15 K, x1 = 0.7989	–	–	–	–	1029.72	1033.62	1037.46	1041.04	1044.59
298.15 K, x1 = 0.8491	–	–	–	–	1042.57	1046.53	1050.43	1054.02	1057.6
298.15 K, x1 = 0.8993	–	–	–	–	1055.43	1059.4	1063.31	1066.92	1070.52
298.15 K, x1 = 0.9249	–	–	–	–	1061.94	1065.92	1069.84	1073.44	1077.05
298.15 K, x1 = 0.9489	–	–	–	–	1067.96	1071.94	1075.86	1079.52	1083.13
298.15 K, x1 = 0.9743	–	–	–	–	1074.33	1078.36	1082.29	1085.95	1089.6
298.15 K, x1 = 1	–	–	–	–	1080.9	1084.89	1088.82	1092.44	1096.04
303.15 K, x1 = 0.0273	802.96	806.96	810.58	814.19	817.69	821.09	824.3	–	–
303.15 K, x1 = 0.0506	809.34	813.38	817.06	820.71	824.27	827.72	830.93	–	–
303.15 K, x1 = 0.0755	816.25	820.3	824.02	827.68	831.25	834.74	838.05	–	–
303.15 K, x1 = 0.1007	823.16	827.26	831	834.7	838.32	841.82	845.13	–	–
303.15 K, x1 = 0.1495	836.62	840.77	844.56	848.32	851.95	855.5	858.87	–	–
303.15 K, x1 = 0.2003	850.48	854.68	858.53	862.39	866.08	869.69	873.1	–	–
303.15 K, x1 = 0.2529	864.74	869	872.91	876.81	880.56	884.23	887.7	–	–
303.15 K, x1 = 0.2993	877.26	881.57	885.49	889.45	893.25	896.97	900.44	–	–
303.15 K, x1 = 0.3497	890.62	894.99	899.01	903.02	906.89	910.67	914.19	–	–
303.15 K, x1 = 0.401	904.1	908.57	912.65	916.71	920.64	924.47	928.04	–	–
303.15 K, x1 = 0.4509	917.2	921.72	925.81	929.92	933.91	937.75	941.37	–	–
303.15 K, x1 = 0.5002	930.06	934.59	938.74	942.9	946.9	950.79	954.47	–	–
303.15 K, x1 = 0.5498	942.89	947.47	951.68	955.89	959.95	963.85	967.53	–	–
303.15 K, x1 = 0.5996	955.69	960.32	964.59	968.8	972.92	976.87	980.61	–	–
303.15 K, x1 = 0.6499	968.54	973.22	977.56	981.82	985.95	989.96	993.75	–	–
303.15 K, x1 = 0.7006	981.46	986.15	990.49	994.8	998.94	1003.01	1006.8	–	–
303.15 K, x1 = 0.7471	993.16	997.9	1002.3	1006.66	1010.86	1014.93	1018.72	–	–
303.15 K, x1 = 0.7989	1006.2	1010.99	1015.45	1019.82	1024.03	1028.15	1032	–	–
303.15 K, x1 = 0.8491	1018.81	1023.65	1028.12	1032.54	1036.81	1040.99	–	–	–
303.15 K, x1 = 0.8993	1031.43	1036.28	1040.81	1045.23	1049.51	1053.69	–	–	–
303.15 K, x1 = 0.9249	1037.82	1042.67	1047.21	1051.62	1055.91	1060.1	–	–	–
303.15 K, x1 = 0.9489	1043.76	1048.62	1053.16	1057.63	1061.92	1066.11	–	–	–
303.15 K, x1 = 0.9743	1050.11	1054.97	1059.51	1063.98	1068.28	1072.47	–	–	–
303.15 K, x1 = 1	1056.61	1061.47	1066.02	1070.49	1074.79	1078.99	–	–	–
